Where two headings read alike, the source gives them in different places.

One test has as its target T1, OR8D1 (Homo sapiens, UniProt Q8WZ84).
T1 construct: Lucy (cleavable signal peptide) (N); FLAG (N); Rho (first 20 aa of bovine rhodopsin) (N); expressed in transfected cells
T1 sequence (Q8WZ84 1-308): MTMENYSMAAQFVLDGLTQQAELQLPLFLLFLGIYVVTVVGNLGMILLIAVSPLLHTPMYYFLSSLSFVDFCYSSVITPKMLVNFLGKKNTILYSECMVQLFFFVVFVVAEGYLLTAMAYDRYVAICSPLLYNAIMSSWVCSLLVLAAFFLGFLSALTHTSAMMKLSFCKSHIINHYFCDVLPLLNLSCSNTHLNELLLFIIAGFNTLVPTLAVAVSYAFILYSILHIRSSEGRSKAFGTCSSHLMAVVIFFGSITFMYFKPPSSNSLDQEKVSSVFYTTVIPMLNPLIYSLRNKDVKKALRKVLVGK
As to the kind of experiment: OR8D1 cell-based cAMP HTRF assay. The conditions noted are these: dose-response, 100% = full agonist; for Emax: read-out: OR8D1 % Efficacy.

In a further test the target is T2, OR5AN1 (Homo sapiens, UniProt Q8NGI8).
T2 construct: Lucy (cleavable signal peptide) (N); FLAG (N); Rho (first 20 aa of bovine rhodopsin) (N); expressed in transfected cells
T2 sequence (Q8NGI8 1-311): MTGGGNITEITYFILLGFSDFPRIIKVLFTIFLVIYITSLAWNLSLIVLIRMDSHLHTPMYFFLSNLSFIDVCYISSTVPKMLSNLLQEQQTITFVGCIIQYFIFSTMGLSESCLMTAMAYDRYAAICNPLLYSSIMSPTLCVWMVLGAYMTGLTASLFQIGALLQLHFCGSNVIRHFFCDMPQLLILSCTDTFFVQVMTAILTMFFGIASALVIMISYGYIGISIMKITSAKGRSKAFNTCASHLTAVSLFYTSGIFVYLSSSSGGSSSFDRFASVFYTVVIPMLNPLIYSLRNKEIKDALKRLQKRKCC
Description: OR5AN1 cell-based cAMP HTRF assay. The following applies: for Emax: read-out: OR5AN1 % Efficacy. On the technique in general: TR-FRET usually uses a lanthanide donor and a delayed reading to cut background.

The next test addresses T3, OR5A1 (Homo sapiens, UniProt Q8NGJ0).
T3 construct: Lucy (cleavable signal peptide) (N); FLAG (N); Rho (first 20 aa of bovine rhodopsin) (N); expressed in transfected cells
T3 sequence (Q8NGJ0 1-315): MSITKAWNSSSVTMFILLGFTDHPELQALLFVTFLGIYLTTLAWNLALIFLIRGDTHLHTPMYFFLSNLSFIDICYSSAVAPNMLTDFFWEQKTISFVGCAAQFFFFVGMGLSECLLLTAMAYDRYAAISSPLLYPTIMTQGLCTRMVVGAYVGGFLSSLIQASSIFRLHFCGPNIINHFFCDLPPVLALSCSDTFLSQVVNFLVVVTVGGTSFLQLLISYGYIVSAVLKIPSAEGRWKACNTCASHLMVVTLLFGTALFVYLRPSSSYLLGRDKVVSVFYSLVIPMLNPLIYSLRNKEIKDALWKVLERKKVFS
Description: OR5A1 cell-based cAMP HTRF assay. The conditions noted are these: for Emax: read-out: OR5A1 % Efficacy.

For the next test, the target named is T4, OR7A17 (Homo sapiens, UniProt O14581).
T4 construct: Lucy (cleavable signal peptide) (N); FLAG (N); Rho (first 20 aa of bovine rhodopsin) (N); expressed in transfected cells
T4 sequence (O14581 1-309): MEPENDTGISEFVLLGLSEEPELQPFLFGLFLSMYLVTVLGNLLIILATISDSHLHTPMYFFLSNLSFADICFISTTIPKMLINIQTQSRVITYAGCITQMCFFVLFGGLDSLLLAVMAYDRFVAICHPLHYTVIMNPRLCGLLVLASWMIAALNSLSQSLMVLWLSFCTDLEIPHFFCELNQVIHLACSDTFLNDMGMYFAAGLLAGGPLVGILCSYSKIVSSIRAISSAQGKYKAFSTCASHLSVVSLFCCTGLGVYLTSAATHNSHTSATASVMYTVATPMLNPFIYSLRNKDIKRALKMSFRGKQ
As to the kind of experiment: OR7A17 cell-based cAMP HTRF assay. The following applies: FIG. 1.

For another test, the target named is T5, OR1C1 (Homo sapiens, UniProt Q15619).
T5 construct: Lucy (cleavable signal peptide) (N); FLAG (N); Rho (first 20 aa of bovine rhodopsin) (N); expressed in transfected cells
T5 sequence (Q15619 1-314): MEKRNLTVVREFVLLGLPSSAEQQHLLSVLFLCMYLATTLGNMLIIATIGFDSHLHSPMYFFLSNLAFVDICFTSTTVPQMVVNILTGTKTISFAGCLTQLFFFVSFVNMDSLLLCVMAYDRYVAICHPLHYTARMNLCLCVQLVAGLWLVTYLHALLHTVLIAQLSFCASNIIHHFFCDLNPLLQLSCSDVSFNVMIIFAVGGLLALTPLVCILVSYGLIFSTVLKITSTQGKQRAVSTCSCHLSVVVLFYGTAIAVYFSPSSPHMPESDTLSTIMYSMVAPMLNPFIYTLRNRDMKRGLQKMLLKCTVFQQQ
As to the kind of experiment: OR1C1 cell-based cAMP HTRF assay. The following applies: dose-response; 100% = full agonist; read-out: OR1C1 % Efficacy.

Another test concerns the target T6, OR5B12 (Homo sapiens, UniProt Q96R08).
T6 construct: Lucy (cleavable signal peptide) (N); FLAG (N); Rho (first 20 aa of bovine rhodopsin) (N); expressed in transfected cells
T6 sequence (Q96R08 1-314): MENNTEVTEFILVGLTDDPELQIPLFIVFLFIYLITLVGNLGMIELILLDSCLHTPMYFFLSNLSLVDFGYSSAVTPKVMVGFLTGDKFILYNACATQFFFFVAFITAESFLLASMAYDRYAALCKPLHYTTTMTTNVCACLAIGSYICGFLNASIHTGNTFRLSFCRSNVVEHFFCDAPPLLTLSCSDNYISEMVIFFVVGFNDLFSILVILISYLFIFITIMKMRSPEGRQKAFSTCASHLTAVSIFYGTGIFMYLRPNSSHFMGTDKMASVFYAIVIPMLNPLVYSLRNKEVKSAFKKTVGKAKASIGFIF
As to the kind of experiment: OR5B12 cell-based cAMP HTRF assay. The following applies: dose-response; 100% = full agonist.

For another test, the target named is T7, OR10J5 (Homo sapiens, UniProt Q8NHC4).
T7 construct: Lucy (cleavable signal peptide) (N); FLAG (N); Rho (first 20 aa of bovine rhodopsin) (N); expressed in transfected cells
T7 sequence (Q8NHC4 1-309): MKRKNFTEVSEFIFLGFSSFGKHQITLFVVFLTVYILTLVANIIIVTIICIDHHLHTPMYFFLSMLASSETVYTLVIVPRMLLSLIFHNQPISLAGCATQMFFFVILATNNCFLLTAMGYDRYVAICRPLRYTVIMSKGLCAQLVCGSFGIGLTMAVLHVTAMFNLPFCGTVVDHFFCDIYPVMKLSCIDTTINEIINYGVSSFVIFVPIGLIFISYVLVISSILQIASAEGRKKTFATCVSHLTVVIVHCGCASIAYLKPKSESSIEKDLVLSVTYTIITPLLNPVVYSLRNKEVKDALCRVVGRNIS
As to the kind of experiment: OR10J5 cell-based cAMP HTRF assay. The following applies: for Emax: read-out: OR10J5 % Efficacy.

The target in another test is T8, OR1N2 (Homo sapiens, UniProt Q8NGR9, T287M/V230G/W23R).
T8 construct: Lucy (cleavable signal peptide) (N); FLAG (N); Rho (first 20 aa of bovine rhodopsin) (N); expressed in transfected cells
T8 sequence (Q8NGR9 1-316 W23R/V230G/T287M): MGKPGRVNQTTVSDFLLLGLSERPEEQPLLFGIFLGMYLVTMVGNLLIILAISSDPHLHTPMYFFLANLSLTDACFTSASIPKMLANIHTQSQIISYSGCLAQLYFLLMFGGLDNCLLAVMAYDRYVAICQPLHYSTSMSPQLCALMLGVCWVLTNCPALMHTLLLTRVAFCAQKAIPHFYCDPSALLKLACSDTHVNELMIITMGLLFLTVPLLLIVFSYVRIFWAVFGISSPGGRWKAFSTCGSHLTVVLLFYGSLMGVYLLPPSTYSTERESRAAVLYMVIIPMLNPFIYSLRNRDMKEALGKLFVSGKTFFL
Description: OR1N2 cell-based cAMP HTRF assay. The following applies: read-out: OR1N2 % Efficacy.

The mark [1] stands for this setting: dose-response, 100% = full agonist.

With `CCC1OC(=O)C(O)=C1C` (centres unmarked) [Maple Furanone, 2-ethyl-4-hydroxy-3-methyl-2~{H}-furan-5-one], the “OR8D1 % Efficacy” value on OR8D1 is listed as 100%.
On to “3-methylcyclopentadec-4-en-1-one; 3-methylcyclopentadec-5-en-1-one [Muscenone delta]”, for which, on OR5AN1 (setting [1]), the “OR5AN1 % Efficacy” value was 86%.
Consider `CC1=C(O)C(=O)CC1` [Cyclotone, 2-hydroxy-3-methylcyclopent-2-en-1-one], for which the Emax on OR8D1 was found to be 97%.
Regarding `CC(=O)C=CC1=C(C)CCCC1(C)C` [Beta-ionone, 4-(2,6,6-trimethylcyclohexen-1-yl)but-3-en-2-one], the “activation of OR5A1 (violet tonality)” value at OR5A1 (FIG. 1) is on record as “activation”. On OR5A1 (setting [1]), the Emax was found to be 100%. Further, the “activation of OR7A17 (blonde woody tonality)” value on OR7A17 is “activation”.
Take `CCC=C1OC(=O)c2ccccc21` [Propylidene phthalide, 3-propylidene-2-benzofuran-1-one]: on OR8D1, the Emax turned out to be 80%.
Consider `O=C1CCC=CCCCCCCCCCC1` [Exaltenone, cyclopentadec-4-en-1-one], for which, at OR5AN1 (setting [1]), the Emax worked out at 86%.
Same read-out and setting: with `CC(=O)c1c(C)c([N+](=O)[O-])c(C(C)(C)C)c([N+](=O)[O-])c1C` [Musk ketone, 1-(4-~{tert}-butyl-2,6-dimethyl-3,5-dinitrophenyl)ethanone] the figure was 100%.
`C=CC(C)(O)CCC=C(C)CC` (centres unmarked) [Ethyl Linalool, 3,7-dimethylnona-1,6-dien-3-ol]: on OR1C1, the Emax is 99%.
For `CCCCC[C@@H]1C(=O)CC[C@@H]1CC(=O)OC` [Hedione, methyl 2-[(1~{R},2~{S})-3-oxo-2-pentylcyclopentyl]acetate], the “OR5B12 % Efficacy” value at OR5B12 came to 86%.
As to `C=CC(C)(O)CCC=C(C)C` (centres unmarked) [Linalool, 3,7-dimethylocta-1,6-dien-3-ol], the Emax on OR1C1 amounted to 100%.
Same read-out and setting: with `CCC(C)(O)CCCC(C)C` (centres unmarked) [Tetralinol, 3,7-dimethyloctan-3-ol] the figure was 79%.
On to `C[C@@H]1CCCCCCCCCCCCC(=O)C1` [Muscone, (R)-3-methylcyclopentadecanone], for which, on OR5AN1 (setting [1]), the Emax was 75%.
In the case of `Cc1ccc2c(c1)CC(C)(CO)C2` (centres unmarked) [Lilyflore, (2,5-dimethyl-1,3-dihydroinden-2-yl)methanol], the Emax at OR10J5 (setting [1]) was found to be 58%.
Take “methyl 2-[(1~{S},2~{S})-3-oxo-2-pentylcyclopentyl]acetate; methyl 2-[(1~{R},2~{S})-3-oxo-2-pentylcy clopentyl]acetate [Jasmodione]”: the “OR5B12 % Efficacy” value on OR5B12 worked out at 98%.
In the case of `C=CC(C)(O)CCCC(C)C` (centres unmarked) [Dihydrolinalool, 3,7-dimethyloct-1-en-3-ol], the Emax at OR1C1 worked out at 95%.
Turning to `CCCC1CC(=O)C=C(C)C1` (centres unmarked) [Celery ketone, 3-methyl-5-propylcyclohex-2-en-1-one], the Emax at OR8D1 came to 76%.
On to `CC1=C(O)C(=O)OC1C` (centres unmarked) [Sotolone, 4-hydroxy-2,3-dimethyl-2~{H}-furan-5-one], for which the “OR8D1 % Efficacy” value on OR8D1 was 100%.
As to “methyl 2-[[3-(4-hydroxy-4-methylpentyl)cyclohex-3-en-1-ylidene]methylamino]benzoate; methyl 2-[[4-(4-hydroxy-4-methylpentyl)cyclohex-3 -en-1-ylidene]methylamino]benzoate [Lyronol 50 dipg]”, the “OR10J5 % Efficacy” value at OR10J5 (setting [1]) was found to be 100%.
`O=C1CCCCCCCC=CCCCCCCC1` [Civetone, cycloheptadec-9-en-1-one]: the Emax at OR1N2 is 94%.
As for `CC(=CCCC=O)CCCC(C)(C)O` [Mahonial, 9-hydroxy-5,9-dimethyldec-4-enal], the Emax on OR10J5 (setting [1]) worked out at 96%.
As to `O=C1CCCCCCCC=CCCCCCCO1` [Ambrettolide, 1-oxacycloheptadec-10-en-2-one], the Emax at OR1N2 (setting [1]) is 100%.
For `CC(C)CC1CC(C)(O)CCO1` (centres unmarked) [Florol, 4-methyl-2-(2-methylpropyl)oxan-4-ol], the Emax at OR10J5 (setting [1]) is 40%.
Take `CCC(=O)C=CC1=C(C)CCCC1(C)C` [Methylionone beta, 1-(2,6,6-trimethylcyclohexen-1-yl)pent-1-en-3-one]: the Emax at OR5A1 (setting [1]) was 82%.
For “4-(2,6,6-trimethylcyclohexen-1-yl)but-3-en-2-one; 4-(2,6,6-trimethylcyclohex-2-en-1-yl)but-3-en-2-one [Violette AT]”, the “OR5A1 % Efficacy” value at OR5A1 (setting [1]) is 78%.
Consider `CC(C)(O)CCCC1=CCC(C=O)CC1` (centres unmarked) [Lyral, 3-(4-hydroxy-4-methylpentyl)cyclohex-3-ene-1-carbaldehyde; 4-(4-hydroxy-4-methylpentyl)cyclohex-3-ene-1-carbaldehyde], for which the Emax at OR10J5 came to 100%.
For `Cc1c([N+](=O)[O-])c(C)c([N+](=O)[O-])c(C(C)(C)C)c1[N+](=O)[O-]` [Musk xylol, 1-~{tert}-butyl-3,5-dimethyl-2,4,6-trinitrobenzene], on OR5AN1, the “OR5AN1 % Efficacy” value is 97%.
As to `O=C1CCCCCCCCCCCC(=O)OCCO1` [Astrotone, 1,4-dioxacycloheptadecane-5,17-dione], at OR1N2 (setting [1]), the Emax was 59%.

For the origin of these results see patent US20230065799A1, “METHOD FOR ATTRIBUTING OLFACTORY TONALITIES TO OLFACTORY RECEPTOR ACTIVATION AND METHODS FOR IDENTIFYING COMPOUNDS HAVING THE ATTRIBUTED TONALITIES” (FIRMENICH SA, priority 2019, published 2023).
